Results on 68 molecules are retold here after the supplement of paper PMC6723410.

In the assay the test system is GUMC-403. The experiment in a line: viability at highest tested concentration (max response) relative to DMSO (% of DMSO control); higher = less cytotoxic. To be noted: library / dose series: MIPE library, 11-point 1:3 dilution, 48 h. The procedure, abridged: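 Plates of 1536 wells were seeded with 700 patient-derived GUMC-403 papilloma cells per well, grown by conditional reprogramming, in 5 μL F + Y medium and kept overnight at 37 °C. Compounds followed at 23 nL by pin tool over an 11-point 1:3 series, for 48 h. After a CellTiter-Glo luminescence read on a ViewLux, signals were set against vehicle wells as 100% and empty wells as 0%. The reported number is viability at the highest tested concentration relative to vehicle control.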

Structures are written as SMILES.

Where the note is “top concentration 46.1 µM”, `CC/1=C(/C(CC(=O)N1)C2=CC=C(C=C2)C(F)(F)F)C(=O)NC3=C(F)C=C4[NH]N=CC4=C3` (stereo not drawn) gave a viability of 108.
The same measure, in the same setting: as for `Cc1cccc(-c2nn(C(=S)Nc3ccccc3)cc2-c2ccnc3ccccc23)n1`, the figure is 135; as for `CC(C(C)N1CC(=O)NC(=O)C1)N1CC(=O)NC(=O)C1` (stereo not drawn), 109.
On to `O=C(Cc1ccc(-c2ccc(OCCN3CCOCC3)cc2)cn1)NCc1ccccc1`, for which the viability (top concentration 46.1 µM) came to 104.
The molecule `CC(C)(O)/C=C\C(=O)[C@](C)(O)[C@H]1[C@H](O)C[C@]2(C)[C@@H]3CC=C4[C@@H](C=C(O)C(=O)C4(C)C)[C@]3(C)C(=O)C[C@@]12C` returned a viability (top concentration 46.1 µM) of 83.7.
On the same count and under the same terms, then `O=C(Nc1nnc(-c2ccco2)o1)c1cc(-c2ccccc2)nc2ccccc12`, with 89.1; and `C=C(C)[C@@H]1CC[C@]2(C(=O)O)CC[C@]3(C)[C@H](CC[C@@H]4[C@@]5(C)CC[C@H](O)C(C)(C)[C@@H]5CC[C@]43C)[C@@H]12`, with 94.5; and `Nc1ncnc2nc(-c3ccc(N4CCOCC4)nc3)cc(-c3cccc(Br)c3)c12`, with 110.
On to `O=C(Nc1cccc2c(=O)cc(-c3nnn[nH]3)oc12)c1ccc(OCCCCc2ccccc2)cc1`, for which, where the note is “top concentration 46.1 µM”, the viability came out at 87.
Still for that read-out and setting: as for `N[S+](=O)([O-])c1cc2c(cc1Cl)NC(C(Cl)Cl)N[S+]2(=O)[O-]` (stereo not drawn), the figure is 98.6.
In turn, `O.O.CCN1CCN(C(=O)N[C@H](C(=O)N[C@H]2[C@@H]3SC\C(=C(/N3C2=O)C(O)=O)CSC4=NN=N[N]4C)C5=CC=C(O)C=C5)C(=O)C1=O` registered a viability (top concentration 13.4 µM) of 130.
On to `Cc1ccccc1C(C(=O)NC1CCCCC1)N(C(=O)Cn1ccnc1C)c1cccc(F)c1` (stereo not drawn), for which the viability (top concentration 46.1 µM) was 120.
The same measure, in the same setting: as for `O=C([O-])C(O)Cc1ccc(O)c(O)c1` (stereo not drawn), the figure is 106.
Where the note is “top concentration 46.1 µM”, `CN(C)CCc1ccc(O)cc1` showed a viability of 118.
On the same count and under the same terms, as for `CN(N=O)C(=O)N[C@H]1C(O)OC(CO)[C@@H](O)[C@@H]1O` (stereo partly drawn), the figure is 113.
The same measure, in the same setting: as for `COc1cc(NC(=O)c2ccc(-c3ccc(Cl)cc3)o2)cc(OC)c1`, the figure is 39.9; as for `OC(=O)C1=CC=C(NC2=NC3=C(C\N=C(/C4=CC(=CC=C34)Cl)C5=C(F)C=CC=C5F)C=N2)C=C1`, 131; as for `CC(C)c1noc(N2CCC(COc3ccc(-c4ccc([S+](C)(=O)[O-])cc4)nc3)CC2)n1`, 91.9.
The same measure, in the same setting: then `CCO[C@@H]1OC(=O)C[C@@H]1NC(=O)[C@@H]1CCCN1C(=O)[C@@H](NC(=O)c1ccc(N)c(Cl)c1)C(C)(C)C`, with 138.
`C=C1CCC2[C@](C)(CO)C(O)CC[C@]2(C)C1C/C=C1/C(=O)OCC1O` (stereo partly drawn) came in with a viability (top concentration 92.2 µM) of 106.
For the molecule `Clc2cccc(Cl)c2\N=C1/NCCN1`, where the note is “top concentration 46.1 µM”, the viability stood at 132.
Still for that read-out and setting: as for `Cc1c(C(=O)Nc2cccc(C(F)(F)F)c2)cc(-c2ccccc2)n1CCCN1CCOCC1`, the figure is 98.9; as for `CC(C)(CO)[C@@H](O)C(=O)NCCC(=O)O`, 82.6; as for `COc1ccc2[nH]c([S+]([O-])Cc3ncc(C)c(OC)c3C)nc2c1` (stereo not drawn), 88.8.
With `CO[C@@H]1[C@H](N(C)C(=O)c2ccccc2)C[C@H]2O[C@]1(C)n1c3ccccc3c3c4c(c5c6ccccc6n2c5c31)C(=O)NC4`, the viability (top concentration 46.1 µM) came out at 66.2.
Still for that read-out and setting: as for `C[C@@H]1CN(Cc2ccc(F)cc2)[C@@H](C)CN1C(=O)c1cc2c(C(=O)C(=O)N(C)C)cn(C)c2cc1Cl`, the figure is 101; as for `N[C@@H](C(=O)N[C@H]1[C@H]2SC\C(=C(/N2C1=O)C(O)=O)Cl)C3=CC=CC=C3`, 122; as for `C[C@]\12CCC(=O)\C=C1[C@@H]3C[C@@H]3[C@@H]4[C@@H]2CC[C@@]5(C)[C@H]4[C@@H]6C[C@@H]6[C@@]57CCC(=O)O7`, 89.8.
`CC(C)[C@H]1C(=O)N[C@H](CO)Cc2c[nH]c3cccc(c23)N1C`: the viability (top concentration 46.1 µM) worked out at 107.
The same measure, in the same setting: then `Cc1cc(SCc2sc(-c3ccc(C(F)(F)F)cc3)nc2C)ccc1OCC(=O)O`, with 133.
On to `C[C@]\1(CCS\C(=N1)N)C2=CC(=C(F)C=C2F)C3=CN=CN=C3`, for which the viability (top concentration 46.1 µM) came to 80.2.
On the same count and under the same terms, as for `CCN(CC)Cc1ccc2cc(COC(=O)Nc3ccc(C(=O)NO)cc3)ccc2c1`, the figure is 78.6.
For the setting “top concentration 92.2 µM”, `Nc1ccn([C@H]2CS[C@@H](CO)O2)c(=O)n1` registered a viability of 106.
The molecule `Cc1cn([C@@H]2O[C@H](CO)[C@@H](O)[C@@H]2F)c(=O)[nH]c1=O` gave a viability (top concentration 46.1 µM) of 128.
As for `CCc1cc(Nc2nccc(-c3c(-c4ccc(OC)c(C(=O)Nc5c(F)cccc5F)c4)nc4ccccn34)n2)c(OC)cc1N1CCC(N2CCN([S+](C)(=O)[O-])CC2)CC1`, the viability (top concentration 46.1 µM) is 122.
The same measure, in the same setting: then `CC(C)C1NC(=O)C(NC(=O)C2=C3\N=C\4/C(=C(C)\C(=O)\C(=C4C(=O)NC5C(C)OC(=O)C(C(C)C)N(C)C(=O)CN(C)C(=O)C6CCCN6C(=O)C(NC5=O)C(C)C)N)OC3=C(C)C=C2)C(C)OC(=O)C(C(C)C)N(C)C(=O)CN(C)C(=O)C7CCCN7C1=O` (stereo not drawn), with 12.2.
Consider `C[C@H]1CN(C[C@@H](C)O1)CC(=O)NC2=CC=C3SC4=C(CC3=C2)C=CC=C4\C5=C\C(=O)\C=C(/O5)N6CCOCC6`, for which, for the setting “top concentration 46.1 µM”, the viability came out at 115.
On the same count and under the same terms, as for `CC[C@]12CC[C@H]3[C@@H](CCC/4=C/C(=O)CC[C@H]34)[C@@H]1CC[C@@]2(O)C#C`, the figure is 93.2; as for `COC(=O)C[C@](O)(CCCC(C)(C)O)C(=O)O[C@@H]1C(OC)=CC23CCCN2CCc2cc4c(cc2[C@H]13)OCO4` (stereo partly drawn), 140; as for `CCOc1cc(C(=O)Nc2ccc(Cl)c(-c3nc4ccccc4[nH]3)c2)cc(OCC)c1OCC`, 90.5.
On the same count and under the same terms, then `CN(CCOc1ccc(NS(C)(=O)=O)cc1)CCc1ccc(NS(C)(=O)=O)cc1`, with 127; and `COc1ccc(-c2cc3nccn3c(Nc3ncccc3C(N)=O)n2)cc1OC`, with 107; and `NC(=O)c1cnccn1`, with 131.
The same measure, in the same setting: then `COC1=CC=C(C=C1)C/2=C/OC3=C(C(=CC(=C3)O)O)C2=O`, with 120.
`O=C(Nc1cccc(Cl)c1)Nc1ncc(CCNc2ncnc3ccsc23)s1`: the viability (top concentration 46.1 µM) is 116.
On to `COC/1=C/C=C2\C(=C/C1=O)[C@H](CCC3=CC(=C(OC)C(=C23)OC)OC)NC(C)=O`, for which, for the setting “top concentration 46.1 µM”, the viability worked out at 90.8.
With `CN1c2ccccc2C(=O)N2CCc3c([nH]c4ccccc34)C21` (stereo not drawn), the viability (top concentration 46.1 µM) amounted to 102.
In turn, `S=C(NCc1ccc2c(c1)OCO2)N1CCN(c2ncnc3c2oc2ccccc23)CC1` yielded a viability (top concentration 92.2 µM) of 100.
As to `C[C@@H]1CCO[C@H]2CN\3/C=C(/C(=O)NCC4=C(F)C=C(F)C=C4)C(=O)\C(=C3C(=O)N12)O`, the viability (top concentration 46.1 µM) was 110.
`CNCC(O)C(O)C(O)C(O)CO.O=C(O)c1ccc(-c2cc3cccnc3c(-c3ccc4nonc4c3)n2)cc1` displayed a viability (top concentration 46.1 µM) of 117.
For `CCC1=C[C@@H]2CN(C1)Cc1c([nH]c3ccccc13)[C@@](C(=O)OC)(c1cc3c(cc1OC)N(C)[C@H]1[C@@](O)(C(=O)OC)[C@H](OC(C)=O)[C@]4(CC)C=CCN5CC[C@]31[C@@H]54)C2`, the viability (top concentration 46.1 µM) was 89.9.
The same measure, in the same setting: as for `Cn1cc(-c2cnn3c(N)c(Br)c([C@H]4CCCNC4)nc23)cn1`, the figure is 100; as for `COc1ccc(Nc2nccc(NCCO)n2)cc1`, 99.9.
Same read-out and setting: as for `COc1cc2nc(N3CCCN(C)CC3)nc(NC3CCN(Cc4ccccc4)CC3)c2cc1OC`, the figure is 13.6; as for `N#CC1(c2ccc(NC(=O)c3cccnc3NCc3ccncc3)cc2)CCCC1`, 101.
In turn, `CC(C)(O)C(=O)Nc1ccc([N+](=O)[O-])c(C(F)(F)F)c1` returned a viability (top concentration 46.1 µM) of 112.
Still for that read-out and setting: then `OC(=O)C/1=C/C(=O)NC(=O)N1`, with 122.
With `CC(C)CC(=O)N[C@H](C(=O)N[C@H](C(=O)N[C@@H](CC(C)C)[C@@H](O)CC(=O)N[C@@H](C)C(=O)N[C@@H](CC(C)C)[C@@H](O)CC(=O)O)C(C)C)C(C)C`, the viability (top concentration 46.1 µM) was found to be 99.5.
Still for that read-out and setting: then `CC(=O)O[C@@]1(CC[C@H]2[C@@H]3\C=C(Cl)/C4=C/C(=O)[C@@H]5C[C@@H]5[C@]4(C)[C@H]3CC[C@]12C)C(C)=O`, with 76.4; and `Cc1cc(C[S+](=O)([O-])c2ccccc2)cc(OCc2ccc(CN3CCC[C@@H]3CO)cc2)c1`, with 116; and `COc1cc(C(=O)NC2CCN(C)CC2)ccc1Nc1ncc2c(n1)N(C1CCCC1)CCC(=O)N2C(C)C`, with 93.5.
As for `CCC(=C/[C@H](C)C/C=C/C(C)=C/[C@@H](C)C(=O)[C@@H](C)[C@H](O)[C@@H](C)C/C(C)=C/C(=O)O)/C=C/[C@@H]1OC(=O)C=C[C@@H]1C`, the viability (top concentration 1.84 µM) was 97.2.
In the case of `Oc1ccc2ccccc2c1SSc1c(O)ccc2ccccc12`, for the setting “top concentration 46.1 µM”, the viability was 129.
Take `O=C(NCC1CCCCN1)c1cc(OCC(F)(F)F)ccc1OCC(F)(F)F` (stereo not drawn): the viability (top concentration 46.1 µM) is 87.2.
As to `O=C(NOCC(O)CO)c1cc(Br)c(F)c(F)c1Nc1ccc(I)cc1F` (stereo not drawn), under “top concentration 46.1 µM”, the viability was determined as 62.8.
Same read-out and setting: then `CC[C@H](CC[C@@H](C)[C@H]1CC[C@H]2[C@@H]3C\C=C/4C[C@@H](O)CC[C@]4(C)[C@H]3CC[C@]12C)C(C)C`, with 101.
`CC[C@]12\C=C/CN3CC[C@]4([C@@H](N(C)C5=CC(=C(C=C45)[C@]6(C[C@H]7C[C@H](CN(C7)CC8=C6[NH]C9=C8C=CC=C9)C(C)(F)F)C(=O)OC)OC)[C@](O)([C@@H]1OC(C)=O)C(=O)OC)[C@H]23`: the viability (top concentration 46.1 µM) was 85.
Molecule `COC/1=C/[C@@H]2[C@@H]3CC4=C(C(=C(OC)C=C4)O)[C@]2(CCN3C)CC1=O` displayed a viability (top concentration 46.1 µM) of 65.
